{"source": "patent US20160193148A1", "about": "“LIPOSOMAL FORMULATIONS FOR THE TREATMENT OF BACTERIAL INFECTIONS” (UNIVERSITY OF GEORGIA RESEARCH FOUNDATION, INC., priority 2013, published 2016)", "key": {"[1]": {"test": "Plasma pharmacokinetics after single IV or nebulized dose in foals", "description": "Eight healthy 5-7-week-old Quarter Horse foals were randomly assigned to one of 4 groups using a balanced Latin-square design. Foals were considered healthy on the basis of physical examinations, complete blood cell counts and plasma biochemical profiles. […] The liposome gentamicin formulation was nebulized using Nortev FLEXINEB. For each treatment, gentamicin was administered over a period of 15 minutes. There was a washout period of 7-14 days between each treatment.\nFor the BAL collection, foals were sedated with xylazine and butorphanol. Concentrations of gentamicin were measured in plasma and in bronchoalveolar cells using HPLC-MS.\nEight foals received a single IV or nebulized dose (6.6 mg/kg bwt) of FG^h or LG in a balanced Latin square design. Beginning at 5-7 weeks of age, every foal received each of the 4 possible drug-route combinations with a 14-day washout period between each administration. Intravenous FG and LG were diluted in 250 ml of sterile 0.9% saline and administered via a jugular catheter as a constant rate infusion over 15 min. Nebulized FG and LG were administered by inhalation over 15 minutes via a commercial equine nebulizer. To ensure equivalent rate of delivery, FG was diluted to the same volume as LG with sterile 0.9% saline. Particle size of nebulized LG was verified using laser diffraction. Blood samples for plasma separation were obtained from a catheter placed in the contralateral jugular vein prior to each drug administration, and at 5, 10, 20, 30, 45 minutes and 1, 1.5, 2, 3, 4, 6, 8, 12, 16, 24 and 48 hours after the end of the 15 minute IV infusion or nebulization period. Bronchoalveolar lavage (BAL) fluid was collected at 2, 4, 8, 24, and 48 hours. Foals were sedated with xylazine hydrochloride (0.5 mg/kg bwt IV) and butorphanol tartrate (0.07 mg/kg bwt IV) prior to collection of BAL fluid. Prior to analysis for gentamicin concentration, blood samples were centrifuged at 400×g for 10 minutes and the resultant plasma frozen at −80° C. until assayed.\nBriefly, gentamicin was extracted from plasma (250 μl) and urine (500 μl) using protein precipitation with an equal volume of ice-cold 90:10 acetonitrile: 0.2% formic acid (v/v). Extracted samples were centrifuged (2° C. at 10,000×g for 10 min) twice. Two-hundred microliters of the supernatants were transferred to polypropylene inserts for injection. The supernatant derived from the lyzed BAL cell pellet was transferred to polypropylene inserts for direct injection without further processing. […] An aliquot of the resultant supernatant was then mixed with an equal volume of ice-cold acetonitrile, centrifuged (2° C. at 10,000×g for 10 minutes) and 200 μl was transferred to polypropylene inserts for injection. Calibration standards were prepared in drug-free foal plasma, BAL fluid or urine and then extracted as described above so that standard curves specific to each biologic matrix could be constructed. […] Analyte separation and LC-MS/MS measurement of gentamicin were performed exactly as described previously (Burton et al. (2013) Equine Vet J. 45, 507-511) except that BAL fluid samples, were introduced in the MS with a flow rate of 0.18 ml/minutes and a total run time of 8 minutes due to relatively low gentamicin concentration in those samples.\nFor each foal, plasma, PELF, and BAL cell concentration versus time data were analyzed using commercial software. Noncompartmental analysis was used for PELF and BAL cell data."}, "[2]": {"conditions": "simulation, Burton et al. 2013, cited from earlier work"}, "R. equi isolates": {"test_system": "R. equi isolates", "conditions": "Riesenberg et al. 2013; cited from earlier work"}, "[3]": {"conditions": "plasma, IV 6.6 mg/kg, 8 foals, Table 4"}, "[4]": {"conditions": "plasma, IV 6.6 mg/kg, 8 foals, listed as FG, 6.6 mg/kg"}}, "note": "Several values for one entry are separate records, joined by “and”; a condition that tells them apart may be missing. Equal values may be shown once. Read-outs that look alike come from different tables or passages of the source.", "data": [{"substance": "gentamicin sulfate [Free Gentamicin]", "values": [{"measurement": "Plasma concentrations after nebulized administration", "setting": "[1]; nebulized 6.6 mg/kg, at most time points", "value": 570, "unit": "ng/mL"}, {"measurement": "A (intercept of the distribution phase)", "setting": "[1]; plasma, IV 6.6 mg/kg, 8 foals", "value": "53.24 ± 25.83", "unit": "µg/mL"}, {"measurement": "AUC0-t", "setting": "[1]; plasma, IV 6.6 mg/kg, 8 foals", "value": "96700 ± 63800", "unit": "ng·h/mL"}, {"measurement": "AUC0-∞", "setting": "[1]; plasma, IV 6.6 mg/kg, 8 foals", "value": "98400 ± 64300", "unit": "ng·h/mL"}, {"measurement": "AUMC0-∞", "setting": "[1]; plasma, IV 6.6 mg/kg, 8 foals", "value": "360.2 ± 364.0", "unit": "μg · h^2/ml"}, {"measurement": "B (intercept of the elimination phase)", "setting": "[1]; plasma, IV 6.6 mg/kg, 8 foals", "value": "2.50 ± 1.50", "unit": "µg/mL"}, {"measurement": "CL", "setting": "[1]; plasma, IV 6.6 mg/kg, 8 foals", "value": "1.42 ± 0.615", "unit": "mL/min/kg"}, {"measurement": "MRT", "setting": "[1]; plasma, IV 6.6 mg/kg, 8 foals", "value": "3.18 ± 1.25", "unit": "h"}, {"measurement": "t1/2α (distribution half-life)", "setting": "[1]; plasma, IV 6.6 mg/kg, 8 foals", "value": "0.97 ± 0.45"}, {"measurement": "α (rate constant of the distribution phase)", "setting": "[1]; plasma, IV 6.6 mg/kg, 8 foals", "value": "0.82 ± 0.28", "unit": "h⁻¹"}, {"measurement": "β (rate constant of the elimination phase)", "setting": "[1]; plasma, IV 6.6 mg/kg, 8 foals", "value": "0.12 ± 0.04", "unit": "h⁻¹"}, {"measurement": "C0.5 h", "setting": "[1]; [3]", "value": "71780 ± 92140", "unit": "ng/mL"}, {"measurement": "C48 h", "setting": "[1]; [3]", "value": "90 ± 90", "unit": "ng/mL"}, {"measurement": "t1/2β", "setting": "[1]; plasma, IV 6.6 mg/kg, 8 foals, Table 4, listed as FG, 6.6 mg/kg", "value": "6.2 ± 1.8 h and 6.20 ± 1.77 h"}, {"measurement": "C1 h", "setting": "[1]; [4]", "value": "32600 ± 25280", "unit": "ng/mL"}, {"measurement": "C24 h", "setting": "[1]; [4]", "value": "250 ± 190", "unit": "ng/mL"}, {"measurement": "C0.5 h", "setting": "[1]; plasma, IV 6.6 mg/kg, Table 1", "value": "71800 ± 92100", "unit": "ng/mL"}, {"measurement": "C48 h", "setting": "[1]; plasma, IV 6.6 mg/kg, Table 1", "value": "100 ± 90", "unit": "ng/mL"}, {"measurement": "t1/2β", "setting": "[1]; plasma, IV 6.6 mg/kg, Table 1, 6.6 mg/kg", "value": "6.2 ± 1.8", "unit": "h"}, {"measurement": "t1/2β", "setting": "[1]; plasma, IV 6.6 mg/kg, Table 1, listed as free gentamicin, 6.6 mg/kg", "value": "6.2 ± 1.8", "unit": "h"}, {"measurement": "predicted plasma concentration 1 hour after IV administration", "setting": "[2]; at 4 weeks of age", "value": "25.27 ± 9.52", "unit": "µg/mL"}, {"measurement": "predicted plasma concentration 24 hours after administration", "setting": "[2]; at 4 weeks of age", "value": "0.20 ± 0.22", "unit": "µg/mL"}, {"measurement": "predicted plasma concentration 1 hour after IV administration", "setting": "[2]; at 12 weeks of age", "value": "34.52 ± 14.11", "unit": "µg/mL"}, {"measurement": "predicted plasma concentration 24 hours after administration", "setting": "[2]; at 12 weeks of age", "value": "0.26 ± 0.11", "unit": "µg/mL"}, {"measurement": "MIC that inhibits at least 90% (MIC90) of R. equi isolates", "setting": "R. equi isolates", "value": 0.5, "unit": "µg/mL"}]}]}
